Here are results for 16 compounds from publication PMC8434401, “Trifluoromethylated Flavonoid-Based Isoxazoles as Antidiabetic and Anti-Obesity Agents: Synthesis, In Vitro α-Amylase Inhibitory Activity, Molecular Docking and Structure–Activity Relationship Analysis” (Molecules, 2021).

Read-outs that look alike come from different tables or passages of the source.

The target in series [1] is Aspergillus oryzae α-amylase (Aspergillus oryzae, UniProt P0C1B3). Briefly: biochemical. The note with it: for inhibition at 50 µM: read-out: α-Amylase Inhibition PI ± SEM% (percentage inhibition). The protocol:
The α-amylase inhibition assays were carried out according to the protocol described by Chortani et al. (2021), with some modifications. In short, all of the compounds were dissolved in DMSO and then diluted in sodium phosphate buffer (0.02 M, pH 6.9 with 0.006 M NaCl). […] The samples were tested at different concentrations of 50, 25, 12.5, and 6.25 μM. After that, 50 μL of the sample solution was added to 50 μL of Aspergillus oryzae α-amylase solution (0.5 mg/mL) dissolved in the same buffer medium. After pre-incubation for 10 min at 25 °C, 50 μL of starch solution (1% in buffer solution) was added to the mixture. After 10 min of incubation at 25 °C, the product of the reaction was mixed with 100 μL of 3,5-dinitrosalicylic acid solution. At this point, the test tubes were placed for 5 min in a boiling water bath (100 °C), followed by cooling to room temperature. Next, each solution was diluted with 1 mL of distilled water. Over time, the absorbance was measured at 540 nm using a Thermo Scientific™ Multiskan™ GO Microplate Spectrophotometer using a 96-well microplate.
The α-amylase inhibitory activity was determined as follows:PI (%) = 100[(AbsControl−AbsSample)/(AbsControl)] where AbsControl is the absorbance of the solution without sample (buffer instead of the sample solution) and AbsSample is the absorbance of the mixture with the solution of the sample to be tested. […] Each assay was conducted in triplicate.

Setting [2] is: Table S1, from the concentration-response curves used to calculate the IC50 values (concentrations in μM), read-out: log(IC50) (converted).
The mark [3] stands for this setting: potency, concentration providing 50% inhibition, mean ± SEM, triplicate, read-out: α-Amylase Inhibition IC50 ± SEM.

The term inhibition denotes the percentage by which the read-out fell short of the control. Regarding `C[C@H]1O[C@H](O[C@H]2[C@H](O)[C@@H](O)[C@@H](O[C@H]3[C@H](O)[C@@H](O)C(O)O[C@@H]3CO)O[C@@H]2CO)[C@H](O)[C@@H](O)[C@@H]1N[C@H]1C=C(CO)[C@@H](O)[C@H](O)[C@H]1O` (stereo partly shown) [Acarbose, reference compound], the inhibition at 50 µM in series [1] was determined as 97.8 ± 0.5%.
For orientation: melting point means the temperature, or range, at which the solid turns liquid. The term IC50 denotes the concentration that inhibits the measured activity by half. `O=c1c(O)c(-c2ccc(C(F)(F)F)cc2)oc2ccc(Cl)cc12` [Compound 1, 6-Chloro-3-hydroxy-2-(4-(trifluoromethyl)phenyl)-4H-chromen-4-one] displayed a melting point of 275 °C. Also, the half-maximal inhibitory concentration (IC50) in series [1] (setting [2]) was 15.3 µM. The IC50 in series [1] (setting [3]) was found to be 15.3 ± 0.4 µM. Also, in series [1], the inhibition at 50 µM was 75.2 ± 1.4%.
`C#CCOc1c(-c2ccc(C(F)(F)F)cc2)oc2ccc(Cl)cc2c1=O` [Compound 2, 6-Chloro-3-(prop-2-yn-1-yloxy)-2-(4-(trifluoromethyl)phenyl)-4H-chromen-4-one]: the melting point came to 122 °C. The IC50 in series [1] (setting [2]) is 17.7 µM. In series [1] (setting [3]), the IC50 is 17.7 ± 0.2 µM. The inhibition at 50 µM in series [1] was 75.2 ± 0.3%.
With `O=c1c(OCc2cc(-c3ccccc3)no2)c(-c2ccc(C(F)(F)F)cc2)oc2ccc(Cl)cc12` [Compound 3a, 6-Chloro-3-((3-phenylisoxazol-5-yl)methoxy)-2-(4-(trifluoromethyl)phenyl)-4H-chromen-4-one], the melting point is 134 °C. Moreover, the IC50 in series [1] (setting [2]) was 27.2 µM. Besides, in series [1] (setting [3]), the IC50 was found to be 27.2 ± 0.7 µM. In addition, the inhibition at 50 µM in series [1] was determined as 65.6 ± 0.2%.
Taken in the same sequence, the figures for `O=c1c(OCc2cc(-c3ccc(F)cc3)no2)c(-c2ccc(C(F)(F)F)cc2)oc2ccc(Cl)cc12` [Compound 3b, 6-Chloro-3-((3-(4-fluorophenyl)isoxazol-5-yl)methoxy)-2-(4-(trifluoromethyl)phenyl)-4H-chromen-4-one] were 147 °C, 12.6 µM, 12.6 ± 0.2 µM and 94.7 ± 1.2%.
`O=c1c(OCc2cc(-c3ccc(Cl)cc3)no2)c(-c2ccc(C(F)(F)F)cc2)oc2ccc(Cl)cc12` [Compound 3c, 6-Chloro-3-((3-(4-chlorophenyl)isoxazol-5-yl)methoxy)-2-(4-(trifluoromethyl)phenyl)-4H-chromen-4-one] showed a melting point of 177 °C. Further, the IC50 in series [1] (setting [2]) is 14.4 µM. Further, the 50% inhibitory concentration (IC50) in series [1] (setting [3]) is 14.4 ± 0.2 µM. Moreover, the inhibition at 50 µM in series [1] was found to be 87.1 ± 0.7%.
`O=c1c(OCc2cc(-c3ccc(Br)cc3)no2)c(-c2ccc(C(F)(F)F)cc2)oc2ccc(Cl)cc12` [Compound 3d, 3-((3-(4-Bromophenyl)isoxazol-5-yl)methoxy)-6-chloro-2-(4-(trifluoromethyl)phenyl)-4H-chromen-4-one] displayed a melting point of 179 °C. The IC50 in series [1] (setting [2]) was 14.6 µM. For the same compound, in series [1] (setting [3]), the half-maximal inhibitory concentration (IC50) amounted to 14.6 ± 0.3 µM. In addition, the inhibition at 50 µM in series [1] turned out to be 85.4 ± 0.9%.
`Cc1ccc(-c2cc(COc3c(-c4ccc(C(F)(F)F)cc4)oc4ccc(Cl)cc4c3=O)on2)cc1` [Compound 3e, 6-Chloro-3-((3-(p-tolyl)isoxazol-5-yl)methoxy)-2-(4-(trifluoromethyl)phenyl)-4H-chromen-4-one]: the melting point amounted to 171 °C. Besides, the IC50 in series [1] (setting [2]) was 26 µM. Also, the IC50 in series [1] (setting [3]) was 26 ± 0.7 µM. Also, the inhibition at 50 µM in series [1] worked out at 65.4 ± 0.4%.
As to `CC(C)(C)c1ccc(-c2cc(COc3c(-c4ccc(C(F)(F)F)cc4)oc4ccc(Cl)cc4c3=O)on2)cc1` [Compound 3f, 3-((3-(4-(Tert-butyl)phenyl)isoxazol-5-yl)methoxy)-6-chloro-2-(4-(trifluoromethyl)phenyl)-4H-chromen-4-one], the melting point came to 112 °C. Besides, in series [1] (setting [2]), the IC50 was 27.6 µM. Besides, in series [1] (setting [3]), the IC50 worked out at 27.6 ± 1.1 µM. Further, the inhibition at 50 µM in series [1] amounted to 64.5 ± 0.7%.
As to `O=c1c(OCc2cc(-c3ccc([N+](=O)[O-])cc3)no2)c(-c2ccc(C(F)(F)F)cc2)oc2ccc(Cl)cc12` [Compound 3g, 6-Chloro-3-((3-(4-nitrophenyl)isoxazol-5-yl)methoxy)-2-(4-(trifluoromethyl)phenyl)-4H-chromen-4-one], the melting point was determined as 175 °C. Further, in series [1] (setting [2]), the IC50 is 18.1 µM. In addition, the IC50 in series [1] (setting [3]) came to 18.1 ± 0.3 µM. In addition, the inhibition at 50 µM in series [1] is 74.7 ± 0.3%.
Compound `COc1ccc(-c2cc(COc3c(-c4ccc(C(F)(F)F)cc4)oc4ccc(Cl)cc4c3=O)on2)cc1` [Compound 3h, 6-Chloro-3-((3-(4-methoxyphenyl)isoxazol-5-yl)methoxy)-2-(4-(trifluoromethyl)phenyl)-4H-chromen-4-one] had a melting point of 152 °C. In addition, in series [1] (setting [2]), the IC50 was 13.3 µM. The IC50 in series [1] (setting [3]) came to 13.3 ± 0.2 µM. For the same compound, in series [1], the inhibition at 50 µM was 93.5 ± 1.1%.
`CCCCOc1ccc(-c2cc(COc3c(-c4ccc(C(F)(F)F)cc4)oc4ccc(Cl)cc4c3=O)on2)cc1` [Compound 3i, 3-((3-(4-Butoxyphenyl)isoxazol-5-yl)methoxy)-6-chloro-2-(4-(trifluoromethyl)phenyl)-4H-chromen-4-one] yielded a melting point of 130 °C. Besides, in series [1] (setting [2]), the 50% inhibitory concentration (IC50) was 15.6 µM. The IC50 in series [1] (setting [3]) turned out to be 15.6 ± 0.2 µM. In series [1], the inhibition at 50 µM was 79.4 ± 1%.
Taken in the same sequence, the figures for `CCCCOc1ccc(-c2cc(COc3c(-c4ccc(C(F)(F)F)cc4)oc4ccc(Cl)cc4c3=O)on2)cc1Cl` [Compound 3j, 3-((3-(4-Butoxy-3-chlorophenyl)isoxazol-5-yl)methoxy)-6-chloro-2-(4-(trifluoromethyl)phenyl)-4H-chromen-4-one] were 134 °C, 13.7 µM, 13.7 ± 0.2 µM and 93.1 ± 0.9%.
`COc1ccc(-c2cc(COc3c(-c4ccc(C(F)(F)F)cc4)oc4ccc(Cl)cc4c3=O)on2)cc1Cl` [Compound 3k, 6-Chloro-3-((3-(3-chloro-4-methoxyphenyl)isoxazol-5-yl)methoxy)-2-(4-(trifluoromethyl)phenyl)-4H-chromen-4-one] registered a melting point of 141 °C. Further, the IC50 in series [1] (setting [2]) is 21 µM. In series [1] (setting [3]), the IC50 was determined as 21 ± 0.6 µM. The inhibition at 50 µM in series [1] was determined as 72.5 ± 1.1%.
Compound `COc1ccc(-c2cc(COc3c(-c4ccc(C(F)(F)F)cc4)oc4ccc(Cl)cc4c3=O)on2)cc1Br` [Compound 3l, 3-((3-(3-Bromo-4-methoxyphenyl)isoxazol-5-yl)methoxy)-6-chloro-2-(4-(trifluoromethyl)phenyl)-4H-chromen-4-one] showed a melting point of 144 °C. In addition, in series [1] (setting [2]), the IC50 is 23 µM. In series [1] (setting [3]), the IC50 came to 23 ± 0.2 µM. In addition, the inhibition at 50 µM in series [1] was determined as 70.4 ± 0.4%.
On to `COc1ccc(-c2cc(COc3c(-c4ccc(C(F)(F)F)cc4)oc4ccc(Cl)cc4c3=O)on2)cc1OC` [Compound 3m, 6-Chloro-3-((3-(3,4-dimethoxyphenyl)isoxazol-5-yl)methoxy)-2-(4-(trifluoromethyl)phenyl)-4H-chromen-4-one], for which the melting point turned out to be 152 °C. The IC50 in series [1] (setting [2]) was 13.8 µM. For the same compound, the IC50 in series [1] (setting [3]) came to 13.8 ± 0.1 µM. In addition, the inhibition at 50 µM in series [1] is 93.3 ± 2%.
